The source of these data is ChEMBL document CHEMBL4725324, “In vitro and in vivo evaluation of the antimalarial MMV665831 and structural analogs” (Bioorg Med Chem Lett, 2020).

Series [1] relates to Plasmodium falciparum. Kind of series: Antimalarial activity against Plasmodium falciparum 3D7 assessed as reduction in parasite growth incubated for 48 hrs. It counts as functional, organism-based. To be noted: 3D7, 48 h.
Series [2] is described as follows: Stability in methanolic diethylamine at 40 degC measured after 2 days 1H-NMR analysis. To be noted: 48 h; time 2 day. Type of series: physicochemical.
Series [3] can be described thus: Stability in methanolic diethylamine at 40 degC measured after 2 days HRMS analysis. Type of series: physicochemical. To be noted: 48 h; time 2 day.
A short description of series [4]: Stability in D2O at 50 degC measured after 7 days HRMS analysis. Type of series: physicochemical. Conditions: 168 h; time 7 day.
Series [5] can be described thus: Stability in D2O at 90 degC measured after 1 day HRMS analysis. Type of series: physicochemical. Conditions: 24 h.
Series [6] can be described thus: Solubility of compound in D2O. Type of series: physicochemical.
Series [7] can be described thus: Solubility of compound in CDCl3. Type of series: physicochemical.
Series [8] is described as follows: Drug metabolism in 0.1 M DCl in D20 assessed as ethyl 2-benzamido-4-deuterio-6-(dimethylaminomethyl)-7-hydroxy-benzothiophene-3-carboxylate formation at 90 degC after 24 hrs.
Series [9] concerns Plasmodium berghei. Kind of series: Antimalarial activity against blood-stage Plasmodium berghei infected in mouse assessed as reduction in parasite growth at 40 mg/kg, po. It counts as functional, organism-based.
Series [10] is described as follows: Stability in mouse plasma assessed as carboxylesterase-mediated reduction in parent compound incubated for over 120 mins. It counts as ADME, cell-free. Conditions: 2 h.
Series [11] is described as follows: Stability in mouse hepatocytes assessed as half life. It counts as ADME, cell-based, Hepatocyte.

Activity calls are given as the source filed them. No cut-off for these calls is given here.

On to `CCOC(=O)c1c(NC(=O)c2ccccc2)sc2c(O)c(CN(C)C)ccc12.Cl`, for which the concentration for a half-maximal effect (EC50) (commonly the concentration that produces a half-maximal response) in [1] came to 0.024 µM. Further, the Stabilty entry in series [2] is on record as “Stable”; in series [3], “Stable”; in series [4], “Stable”; in series [5], “Unstable”. Moreover, the solubility entry in series [6] and in series [7] was “Insoluble” each time. Further, the Drug metabolism entry in [8] is reported as “Metabolite detected”.
Consider `CCOC(=O)c1c(NC(=O)c2ccccc2)sc2c(O)c(CCN(C)C)ccc12`, for which the EC50 in series [1] is 0.182 µM.
Turning to `CCOC(=O)c1c(NC(=O)c2ccccc2)sc2c(O)c(CN(CC)CC)ccc12`, in [1], the EC50 is 0.027 µM. The result in [9] was inactive. Further, the Stabilty result in [10] is on record as “Stable”. In addition, the t1/2 in series [11] was found to be 11 min.
In the case of `CCOC(=O)c1c(NC(=O)c2ccc(Cl)cc2)sc2c(O)c(CN(CC)CC)ccc12`, the EC50 in [1] stood at 0.07 µM.
As to `CCOC(=O)c1c(NC(=O)c2ccccc2)sc2c(O)c(CN3CCCC3)ccc12`, the EC50 in series [1] came to 0.016 µM.
On the same count and under the same terms, the figure for `CCN(CC)Cc1ccc2c(C(=O)OC)c(NC(=O)c3ccccc3)sc2c1O` is 0.053 µM; for `CCCN(CCC)Cc1ccc2c(C(=O)OCC)c(NC(=O)c3ccccc3)sc2c1O` it is 0.016 µM.
On the same count and under the same terms, as for `CCOC(=O)c1c(NC(=O)c2ccccc2)sc2c(O)c(CNC34CC5CC(CC(C5)C3)C4)ccc12`, the figure is 0.388 µM; as for `CCOC(=O)c1c(NC(=O)c2ccccc2)sc2c(O)c(CN3CCOCC3)ccc12`, 0.1 µM.
Regarding `O[C@@H](c1cc(C(F)(F)F)nc2c(C(F)(F)F)cccc12)[C@H]1CCCCN1` [(S,R)-MEFLOQUINE], the concentration giving a half-maximal response (EC50) in series [1] stood at 0.016 µM.
As to `CCOC(=O)c1c(NC(=O)c2ccccc2)sc2c(O)c(CN3CCCCC3)ccc12`, the EC50 in [1] stood at 0.013 µM.
`CCOC(=O)c1c(NC(=O)c2ccc(OC)cc2)sc2c(O)c(CN(CC)CC)ccc12`: the EC50 in series [1] was 0.066 µM.
The same measure, in the same setting: the figure for `CCN(CC)Cc1ccc2c(C(=O)NC)c(NC(=O)c3ccccc3)sc2c1O` is > 1 µM.
For the compound `CCOC(=O)c1c(NC(=O)c2ccccc2)sc2c(OC)c(CN(CC)CC)ccc12`, in series [1], the EC50 was > 1 µM.
